Patent publication EP1551873B1, “AGONISTS AND ANTAGONISTS OF THE HUMAN ODORANT RECEPTOR OR17-4 AND USES THEREOF” (Symrise AG, priority 2002, dated 2004)

Columns and labels:
[1] = tested on: hOR17-4; assay: Ca2+ imaging (Fura-2) of HEK293 cells transiently transfected with pOR17-4 (chimeric receptor); assay type: cell-based, human; conditions: for Rezeptoraktivierung (Ca^2+-Antwort): single odorant about 500 µM, pOR17-4-transfected HEK293 cells; for Wirksamkeit (Rangordnung der Agonisten): ranking by amplitude normalised to ATP and by responding cells relative to Cyclamal ca. 5 mM
Text: Es wird vermutet, dass die Transmembrandomänen III-VI eine Bindungstasche zum Binden von Agonisten bilden (s. S. Firestein, Nature 413, 211-218 (2001)). Um diese Vermutung für den Rezeptor hOR17-4 zu überprüfen wurde ein für die vermuteten Transmembrandomänen III bis VI codierender Abschnitt der für hOR17-4 codierenden cDNA in einem Shuttle-Expressions-Vektor (pOLF-Express) kloniert. Der Expressionsvektor pOLF-Express umfasst die für die N- und C-terminalen Regionen von hOR17-40 codierenden DNA-Abschnitte (C. H. Wetzel et al., Journal of Neuroscience 19, 7426-7433 (1999)). Das resultierende chimäre Rezeptorprotein sollte die Agonistenspezifität des vollständigen Rezeptors hOR17-4 besitzen.
HEK293-Zellen wurden in MEM (Life Technologies, Gaithersburg, MD), das mit 10 % hitze-inaktiviertem fetalem Kälber-Serum angereichert war, in einem Inkubator bei 37 °C in einer Atmosphäre aus 95 % befeuchteter Luft und 5 % CO2 kultiviert. Semikonfluente Zellen wurden in 35 mm Gefäßen (Falcon) mittels Calciumphosphat-Präzipitation (Zufall et al., PNAS 90 (1993), 9335-9339) unter Verwendung jeweils des Plasmids pOR17-4 bzw. pOR17-4v transfiziert. Die Transfektionseffizienz - typischerweise 10 % - wurde histochemisch mit dem Reporterplasmid pCH110 (Pharmacia, Uppsala, Schweden) überprüft, das für β-Galactosidase codiert. Messungen wurden 48 bis 72 Stunden nach der Transfektion durchgeführt. Die Transfektionseffizienz kann mit einem für GFP, einem grün fluoreszierenden Protein, codierenden Reporterplasmid ebenfalls überprüft werden.
Die Rezeptor-Aktivierung in HEK293-Zellen führt zu einem vorübergehenden Anstieg der cytosolischen Ca^2+-Konzentration, die auf der Einzelzell-Ebene unter Verwendung des Ca^2+-sensitiven Farbstoffes Fura-2 (Fura-2 AM, Molecular Probes Europe BV, Leiden, Niederlande; Ladekonzentration 3-4 µg/ml; Ladezeit ca. 30 min) und ratiofluorometrischen Bildgebungstechniken (Imaging-Experimente) detektiert wurden.
Die Ca^2+-imaging-Experimente wurden auf dem Träger eines invertierten Zeiss-Mikroskopes durchgeführt, das für die ratiofluorometrische Bildgebung mit einer Xenon-Bogenlampe, einem Vielfach-Wellenlängen-Illuminations-System POLYCH-ROM II zur Anregung, einer gekühlten charge-coupled device (CCD)-Kamera und einer WinNT-basierten T.I.L.L.-Vision-Software zum Sammeln und raum- und zeitabhängigen Quantifizieren Ca^2+-abhängiger Fluoreszenz-Signale (F340/F380-Verhältnis) ausgestattet war. HEK293-Zellen wurden mit 32-facher, Spermazellen mit 63-facher Vergrößerung beobachtet.
HEK293- und Spermazellen wurden unter Verwendung eines speziellen Applikations-Systems, das es gestattete, vorübergehend alle Zellen im Blickfeld aus einem von sechs benutzergewählten Kapillarröhrchen zu überspülen, Geruchs- und/oder Wirkstoffen (Testlösungen) ausgesetzt. Der Wechsel zwischen den Testlösungen erfolgte nahezu sofort; auch trat im Wesentlichen keine Wirkungsverzögerung nach dem Wechsel auf, weil die Röhrchenspitzen zum optischen Feld eng benachbart waren. Zwischen den Applikationen von Testlösungen überspülte ein Pufferlösungsstrom kontinuierlich alle Zellen im Gefäß, um jedwede potentielle Hintergrund-Anreicherung von Testlösungen (Geruchs- bzw. Wirkstoffen) zu minimieren. Alle Lösungen wurden bei Raumtemperatur appliziert. Alle verwendeten Geruchsstoffe stammten von Dr. T. Gerke, Henkel KGaA, Düsseldorf, FRG, andere Wirkstoffe wurden von Sigma gekauft. Zur Zusammensetzung der Henkel 100-Mischung vergleiche C. H. Wetzel et al., Journal of Neuroscience 19, 7426-7433 (1999).
Alle auf die potentielle Aktivierung von hOR17-4 untersuchten Geruchsstoffe wurden wenigstens in drei verschiedenen Reihen von Transfektionsexperimenten getestet. […] Geruchsstoffe, die nicht in wenigstens 2 % aller HEK293-Zellen messbare Ca^2+-Konzentrationssteigerung auslösten, wurden nicht zu den hOR17-4-spezifischen Agonisten gezählt, ebenso diejenigen wenigen der untersuchten Komponenten, die ein unspezifisches Ca^2+-Signal in fast jeder Zelle hervorriefen. […]

[2] = tested on: Spermien; assay: Signal transduction inhibitors on bourgeonal response of sperm (chemotaxis and swimming speed); assay type: cell-based, human; conditions: inhibitor 50 µM, Bourgeonal 100 nM
Method: Gefrorene Samenproben von fünf gesunden Spendern wurden aus der California Cryobank (Los Angeles, CA, USA) erhalten und für Bioassays gemäß den World Health Organization-Richtlinien (World Health Organization: Laboratory for the examination of human serum and semen-cervical mucus interaction, Cambridge University Press (1993)) vorbereitet (vgl. vorheriges Beispiel und Beispiel 7). Bevor oder während die Spermien mit Bourgeonal (100 nM) behandelt wurden, wurden sie jeweils (a) mit Adenylatcyclase-Inhibitor (MDL-12,330A, 50 µM) und (b) mit einem Phospholipase C-Inhibitor (U73122, 50 µM) behandelt.

[3] = tested on: olfaktorische Rezeptor OR5; conditions: receptor expressed in E. coli; cited from earlier work
[4] = biological target: T1, hOR17-40 (Homo sapiens, UniProt P47881); assay: Ca2+ imaging of HEK293 cells transfected with pOR17-40; assay type: cell-based; conditions: n=168
T1 construct: pOR17-40 (Ausschnitt) mit der vollständigen cDNA von hOR17-40; expressed in transfected cells; host or cells: HEK293, plasmid pOR17-40
T1 sequence (P47881 1-315): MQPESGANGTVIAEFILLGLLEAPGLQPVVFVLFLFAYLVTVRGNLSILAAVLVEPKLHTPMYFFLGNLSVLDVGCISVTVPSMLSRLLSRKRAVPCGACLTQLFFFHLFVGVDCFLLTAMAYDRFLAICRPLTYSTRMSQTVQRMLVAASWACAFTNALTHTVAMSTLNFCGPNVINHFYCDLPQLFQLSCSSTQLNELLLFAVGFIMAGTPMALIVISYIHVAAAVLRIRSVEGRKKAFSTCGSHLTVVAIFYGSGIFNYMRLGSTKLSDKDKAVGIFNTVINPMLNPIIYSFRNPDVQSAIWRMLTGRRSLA

[5] = biological target: T1, hOR17-40; conditions: literature (Wetzel et al. 1999), HEK293; cited from earlier work
[6] = biological target: T2, Ratten-I7-Rezeptor (Rattus norvegicus, UniProt P23270); conditions: cited from earlier work
T2 sequence (P23270 1-327): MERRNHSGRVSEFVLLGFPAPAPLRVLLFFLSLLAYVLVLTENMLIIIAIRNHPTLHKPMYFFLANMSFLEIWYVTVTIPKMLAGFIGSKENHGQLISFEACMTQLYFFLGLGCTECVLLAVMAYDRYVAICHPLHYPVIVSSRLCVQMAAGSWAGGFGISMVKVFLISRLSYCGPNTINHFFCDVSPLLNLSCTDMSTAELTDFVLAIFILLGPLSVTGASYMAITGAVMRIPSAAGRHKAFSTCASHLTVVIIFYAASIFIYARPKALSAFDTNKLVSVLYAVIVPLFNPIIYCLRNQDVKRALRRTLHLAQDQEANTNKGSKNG

Q: Which “Rezeptoraktivierung (Ca^2+-Antwort)” value [1] does the source give for Citrusal [reference compound] here?
A: nicht aktivierenden

Q: With `Cl.c1ccc(C2CCCC2NC2=NCCCCCCCCCCC2)cc1` (centres unmarked) [MDL-12,330A] as the compound, how does the “Anteil der bourgeonal-responsiven Spermien, die nicht mehr auf Bourgeonal reagierten” value ([2]; missing chemotaxis and missing change of swimming speed) read?
A: 72%

Q: For `O=Cc1ccccc1` [Benzaldehyd, reference compound], which “Rezeptoraktivierung (Ca^2+-Antwort)” value [1] is on record?
A: keine messbare Antwort

Q: Which “Rezeptoraktivierung (Ca^2+-Antwort)” value [1] does the source give for `O=CCCc1ccccc1` [3-Phenylpropanal] here?
A: klaren Ca^2+-Antworten

Q: With `CC(C)(C)c1ccc(OCC=O)cc1` [(4-tert-Butylphenoxy)acetaldehyd, (4-tert-butylphenoxy)acetaldehyd] as the compound, how does the “Rezeptoraktivierung (Ca^2+-Antwort)” value [1] read?
A: erzeugte ein Ca^2+-Signal

Q: Which “Wirksamkeit (Rangordnung der Agonisten)” value [1] does the source give for `CC(C=O)Cc1ccc(C(C)(C)C)cc1` (centres unmarked) [Lilial, reference compound] here?
A: wirksamere Agonisten

Q: And the “Rezeptoraktivierung (Ca^2+-Antwort)” value [1]?
A: Fähigkeit der Substanzen, den Rezeptor zu aktivieren

Q: What about the “spezifische Bindung” value [3] of the same compound?
A: spezifische Bindung

Q: Which “Wirksamkeit (Rangordnung der Agonisten)” value [1] does the source give for `CC(C=O)Cc1ccc(C(C)C)cc1` (centres unmarked) [Cyclamal] here?
A: nicht der wirksamste Agonist

Q: What about the “Desensitisierung der Geruchsstoff-Antwort” value ([1]; single application, most responsive cells, ATP response unchanged) of the same compound?
A: vollständigen und langanhaltenden Desensitisierung

Q: And the “Rezeptoraktivierung (Ca^2+-Antwort)” value [1]?
A: Agonist identifiziert

Q: For `CC(C=O)Cc1ccc2c(c1)OCO2` (centres unmarked) [Helional, reference compound], which “Rezeptoraktivierung (Ca^2+-Antwort)” value [1] is on record?
A: keiner Rezeptoraktivierung

Q: And the “vorübergehende Erhöhung des cytosolischen Ca^2+-Spiegels, Anteil aller getesteten Zellen” value [4]?
A: 2 - 5%

Q: What about the “Agonist (Aktivierung des Rezeptors, Erhöhung des cytosolischen Ca^2+-Spiegels)” value [5] of the same compound?
A: als Agonisten wirkende Substanzen

Q: For `CC=Cc1ccc(OC)cc1` [Anethol, reference compound], which “Rezeptoraktivierung (Ca^2+-Antwort)” value [1] is on record?
A: aktivierten den Rezeptor nicht

Q: For `O=C(O)CCc1ccccc1` [3-Phenylpropionsäure, reference compound], which “Rezeptoraktivierung (Ca^2+-Antwort)” value [1] is on record?
A: aktivierten den Rezeptor nicht

Q: Which “Rezeptoraktivierung (Ca^2+-Antwort)” value [1] does the source give for `O=CCCCCc1ccccc1` [5-Phenylvaleraldehyd, reference compound] here?
A: keine messbare Antwort

Q: With `COc1ccc2c(c1)CC[C@@H]1[C@@H]2CC[C@]2(C)[C@@H](NCCCCCCN3C(=O)C=CC3=O)CC[C@@H]12` [U73122] as the compound, how does the “Änderung des Spermienverhaltens” value [2] read?
A: keine Änderung des Spermienverhaltens

Q: With `O=CCc1ccccc1` [Phenylacetaldehyd] as the compound, how does the “Rezeptoraktivierung (Ca^2+-Antwort)” value [1] read?
A: deutliche Ca^2+-Signale

Q: Which “Rezeptoraktivierung (Ca^2+-Antwort)” value [1] does the source give for `CC(CCO)c1ccccc1` (centres unmarked) [3-Phenylbutylalkohol, reference compound] here?
A: aktivierten den Rezeptor nicht

Q: For `CC(C)c1ccccc1` [Isopropylbenzol, reference compound], which “Rezeptoraktivierung (Ca^2+-Antwort)” value [1] is on record?
A: induzierte keine Rezeptoraktivität

Q: With `COc1ccc(CC(C)C=O)cc1` (centres unmarked) [Canthoxal] as the compound, how does the “Induktion einer Ca^2+-Konzentrationssteigerung” value ([1]; agonist concentration reduced to 10^-6 M) read?
A: zu einem gewissen Ausmaß

Q: And the “Wirksamkeit (Rangordnung der Agonisten)” value [1]?
A: wirksamere Agonisten

Q: And the “Rezeptoraktivierung (Ca^2+-Antwort)” value [1]?
A: klare Ca^2+-Antworten

Q: For `CC(CC=O)c1ccccc1` (centres unmarked) [3-PBA, 3-Phenylbutyraldehyd], which “eine Ca^2+-Reaktion nicht mehr auslösender Schwellenwert” value [1] is on record?
A: ~50 µM

Q: What about the “Rezeptoraktivierung (Ca^2+-Antwort)” value [1] of the same compound?
A: klaren Ca^2+-Antworten

Q: Which “Rezeptoraktivierung (Ca^2+-Antwort)” value [1] does the source give for `O=CCCCc1ccccc1` [4-Phenylbutylaldehyd, 4-Phenylbutyraldehyd] here?
A: deutliche Ca^2+-Signale

Q: With `CCc1ccc(CC(C)(C)C=O)cc1` [Floralazon] as the compound, how does the “Rezeptoraktivierung (Ca^2+-Antwort)” value [1] read?
A: Fähigkeit der Substanzen, den Rezeptor zu aktivieren

Q: Which “Rezeptoraktivierung (Ca^2+-Antwort)” value [1] does the source give for `CCCCCCCC=O` [Octanal, reference compound] here?
A: nicht aktiviert

Q: And the “Stimulation des Rezeptors” value [6]?
A: stimuliert

Q: Which “Agonist (Aktivierung des Rezeptors, Erhöhung des cytosolischen Ca^2+-Spiegels)” value [5] does the source give for `CC(=O)CCc1ccc2c(c1)OCO2` [Heliotropylaceton] here?
A: als Agonisten wirkende Substanzen

Q: With `O=CC=Cc1ccccc1` [Cinnamaldehyd, reference compound] as the compound, how does the “Rezeptoraktivierung (Ca^2+-Antwort)” value [1] read?
A: vollständig inaktiv
